Among the data in US20070185072A1, “Nitrogeneous polycyclic derivatives useful as chelators of metal ions and their applications” (priority 2003, published 2007) are plaque loading increase and plaque loading reduction values, retold here.

The subject of this test is double transgenic mice over-expressing human APP (V717I) and human PS1 (A242E). The test is described as follows: Amyloid plaque loading (thioflavin S staining of brain sections) in double transgenic mice model of Alzheimer's disease. Type of test: in vivo. The note with it: vs control. As to the method: Mice over-expressing human APP with the London mutation (V717I) and human PS1 bearing the A242E mutation (APP and PS1 stand for amyloid protein precursor and preseniline 1, respectively) were used.
Three molecules were evaluated on these double transgenic mice (6-month old): 3-Propyl-Clip-Phen (molecule B in the histogram below), Cyclo-bi-Phen (molecule G) and Clioquinol (molecule W) (C stands for control, only DMSO diluted in water).
The molecules were initially diluted in DMSO in the presence of 2.6 equivalents of HCl and then in water and the animals were treated by i.p. injection with the two Phen derivatives at 5 mg/kg or at 10 mg/kg for Clioquinol, three times per week (monday, Wednesday and friday) during 9 consecutive weeks. 9 animals were treated for each drugs (control also included 9 animals).
This method is used to quantify the “old” plaques.

Setting [1] is: 5 mg/kg i.p. three times per week for 9 weeks.

For the compound `c1cnc2c(c1)ccc1cc(OCCCOc3cnc4c(ccc5cccnc54)c3)cnc12` [3-Propyl-Clip-Phen], the plaque loading increase under setting [1] turned out to be 16%.
Where the note is “10 mg/kg i.p. three times per week for 9 weeks”, `Oc1c(I)cc(Cl)c2cccnc12` [Clioquinol, 5-chloro-7-iodo-8-hydroxyquinoline] came in with a plaque loading reduction of 28%.
`c1nc2c3ccc4cc(cnc42)OCCCOc2cnc4c(ccc5cc(cnc54)OCCCOc1c3)c2` [Cyclo-bi-Phen] showed a plaque loading reduction under setting [1] of 38%.
